Several values for one entry are separate records, joined by “and”; a condition that tells them apart may be missing. Equal entries are not always repeated. Square brackets hold non-standard residues; d marks the D form. Peptide text beside a SMILES is read from it. sY = N[C@@H](Cc1ccc(OS(=O)(=O)O)cc1)C(=O)O; pGlu = O=C1CC[C@@H](C(=O)O)N1
Columns and labels:
[1] = tested on: CHO-K1 cells transfected with an empty vector; experiment: Control: CHO-K1 aequorin (G5A) cells transfected with empty pcDNA 3.1(+) vector; assay type: cell-based, Chinese hamster
Excerpt: (§1) To enable testing of ArSK/CCK1 and ArSK/CCK2 as candidate ligands for ArSK/CCKR, a full-length cDNA encoding ArSK/CCKR was synthesized by GenScript (Piscataway, NJ) and cloned into pcDNA 3.1+ vector (Invitrogen, Thermo Fisher Scientific, Waltham, MA). A partial Kozak translation initiation sequence (CACC) was introduced upstream to the start codon (ATG). CHO-K1 cells stably expressing the mitochondrial targeted calcium-sensitive bioluminescent reporter GFP-aequorin fusion protein (G5A) ([Baubet et al., 2000]) were used as a heterologous expression system for ArSK/CCKR. These cells have been used previously for neuropeptide receptor deorphanisation ([Bauknecht and Jékely, 2015]) and were generously supplied to us by Dr Gáspár Jékely (University of Exeter). The cell line was generated using the CHO-K1 cell line from Sigma-Aldrich (85051005; RRID: CVCL_0214), which is certified by the European Collection of Authenticated Cell Cultures (ECACC), and expression of the GFP-aequorin fusion protein (G5A) in the cell line was determined by functionality in displaying calcium-activated luminescence. […] Cells were cultured, co-transfected with the pcDNA 3.1+ vector containing the ArSK/CCKR cDNA sequence and plasmids encoding the promiscuous human G-protein Gα16. Then bioluminescence-based receptor assays were performed, as described previously for A. rubens luqin-type receptors ([Yañez-Guerra et al., 2018]).
(§2) The peptides were diluted in distilled water and tested as candidate ligands for ArSK/CCKR at concentrations ranging from 3 × 10^−17 to 10^−4 M. Concentration-response data were determined as a percentage of the highest response for each peptide (100% activation). EC50 values were calculated from concentration-response curves based on four to six independent transfections and averaging two to three replicates in each transfection using Prism 6.0 (RRID:SCR_002798; GraphPad software, La Jolla, CA). Cells transfected with an empty vector were used for control experiments.

ArSK/CCKR = target: T1, ArSK/CCKR (Asterias rubens, UniProt A0A8F2ZGB9); experiment: Aequorin bioluminescence receptor assay in CHO-K1 cells (G5A) co-transfected with ArSK/CCKR and human Gα16; assay type: cell-based; details: for EC50: luminescence as % of maximal response, four to six independent transfections, two to three replicates each, 3 × 10^−17 to 10^−4 M
T1 sequence (A0A8F2ZGB9 1-434): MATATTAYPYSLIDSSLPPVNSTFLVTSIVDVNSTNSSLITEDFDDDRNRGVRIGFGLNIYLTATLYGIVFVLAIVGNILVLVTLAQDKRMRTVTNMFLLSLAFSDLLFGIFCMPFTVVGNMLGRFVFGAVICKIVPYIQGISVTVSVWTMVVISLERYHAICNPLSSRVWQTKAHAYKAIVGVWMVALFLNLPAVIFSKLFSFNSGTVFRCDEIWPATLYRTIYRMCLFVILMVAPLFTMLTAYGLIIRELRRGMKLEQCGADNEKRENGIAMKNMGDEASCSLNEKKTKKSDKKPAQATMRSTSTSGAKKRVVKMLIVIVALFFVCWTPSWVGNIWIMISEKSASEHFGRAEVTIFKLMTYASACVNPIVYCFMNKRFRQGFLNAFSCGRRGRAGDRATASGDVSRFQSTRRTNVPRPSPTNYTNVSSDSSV
Excerpt: as §1
as §2, with “The peptides were diluted in distilled water and tested as candidate ligands for ArSK/CCKR at concentrations ranging from 3 × 10^−17 to 10^−4 M.” left out

Asterias rubens = experiment: In vivo feeding behaviour on mussels after injection; details: for time to touch (first contact with a mussel) / time to enclose (time to adopt a feeding posture): 10 nmol (10 µl of 1 mM) injected; for time to touch (first contact with a mussel) / time to enclose (time to adopt a feeding posture) / starfish proceeding to a feeding posture after the first touch: compared with water-injected controls; for time to enclose (time to adopt a feeding posture): p = 0.0523 ArSK/CCK1, p < 0.05 ArSK/CCK2; for starfish proceeding to a feeding posture after the first touch / number of advances to touch the mussel / number of starfish that did not initiate feeding within the 5 hr (300 min) observation period: 10 nmol injected; for starfish proceeding to a feeding posture after the first touch: Fisher's exact test; for number of advances to touch the mussel: data not shown; for number of starfish that did not initiate feeding within the 5 hr (300 min) observation period: n = 11 ArSK/CCK1, n = 19 ArSK/CCK2; for time to enclose / time to touch: individual animals
Excerpt: Here, the same methods employed by [Tinoco et al., 2018] were used to investigate if ArSK/CCK1 and/or ArSK/CCK2 affect feeding behaviour in starfish. […] Then, starfish were fasted for 24 days and transferred to and kept individually in Plexiglas aquaria, as described previously ([Tinoco et al., 2018]). […] The time taken for starfish to make first contact with a mussel (tube feet touching the mussel or time to touch the mussel), the number of attempts to touch, as well as the time to enclose the mussel (indicated by a feeding posture) were recorded. Starfish that were feeding after 24 hr were included in data analysis and any starfish in the control or test group that had not fed on a mussel after 24 hr were discarded from data analysis.

[2] = feeding experiments, count of animals
[3] = feeding experiments, percentage of animals
[4] = 10 µl of 1 mM peptide injected, n = 11

Compound	luminescence response [1]	EC50 (ArSK/CCKR) [nM]	time to touch (first contact with a mussel) (Asterias rubens)	time to enclose (time to adopt a feeding posture) (Asterias rubens)	starfish proceeding to a feeding posture after the first touch (Asterias rubens)	number of advances to touch the mussel (Asterias rubens)	number of starfish that did not initiate feeding within the 5 hr (300 min) observation period (Asterias rubens)	Number of animals, First touch success (Asterias rubens; [2])	Number of animals, Unsuccessful first touch (Asterias rubens; [2])	time to enclose (Asterias rubens; feeding experiments)	time to touch (Asterias rubens; feeding experiments)	Percentage, First touch success (Asterias rubens; [3]) [%]	Percentage, Unsuccessful first touch (Asterias rubens; [3]) [%]	potency as ligand for ArSK/CCKR compared with ArSK/CCK1 and ArSK/CCK2 (ArSK/CCKR; from EC50 values)	Number of animals, First touch success (Asterias rubens; [4])	Number of animals, Unsuccessful first touch (Asterias rubens; [4])	Percentage, First touch success (Asterias rubens; [4]) [Percentage]	Percentage, Unsuccessful first touch (Asterias rubens; [4]) [Percentage]	time to touch (Asterias rubens; one line each, 10 µl of 1 mM peptide injected)	time to enclose (Asterias rubens; one line each, 10 µl of 1 mM peptide injected, observation period 300 min)
CC(C)C[C@H](NC(=O)CNC(=O)[C@H](Cc1ccccc1)NC(=O)CNC(=O)[C@H](Cc1ccc(OS(=O)(=O)O)cc1)NC(=O)[C@H](CCC(N)=O)NC(=O)[C@H](CC(=O)O)NC(=O)[C@H](CC(=O)O)NC(=O)CNC(=O)CN)C(=O)N[C@@H](Cc1ccccc1)C(=O)N[C@@H](Cc1ccccc1)C(N)=O [ArSK/CCK2] (H-GGDDQ[sY]GFGLFF-NH2; N-terminus assumed)	did not elicit luminescence responses	0.12	did not affect	higher	fewer	increased number of advances	two	12	6	11.3 min and 199.3 min and 190.75 min and 21 min and 27 min and 53 min and 49 min and 10 min and 237 min and 12 min and 17 min and 300 min and 77 min and 88 min and 22 min and 50 min and 8 min and 46 min	9 min and 6.9 min and 13.1 min and 13 min and 24 min and 49 min and 46 min and 6 min and 11 min and 7 min and 14 min and 36 min and 3 min and 18 min and 45 min and 4 min and 40 min	67	33							
CC(C)C[C@H](NC(=O)CNC(=O)[C@H](Cc1ccccc1)NC(=O)CNC(=O)[C@H](Cc1ccc(O)cc1)NC(=O)[C@H](CCC(N)=O)NC(=O)[C@H](CC(=O)O)NC(=O)[C@H](CC(=O)O)NC(=O)CNC(=O)CN)C(=O)N[C@@H](Cc1ccccc1)C(=O)N[C@@H](Cc1ccccc1)C(N)=O [ArSK/CCK2(ns)] (H-GGDDQYGFGLFF-NH2; N-terminus assumed)	did not elicit luminescence responses	48000												five to six orders of magnitude less potent						
CC(C)C[C@H](NC(=O)CNC(=O)[C@H](Cc1c[nH]cn1)NC(=O)CNC(=O)[C@H](Cc1ccc(OS(=O)(=O)O)cc1)NC(=O)[C@H](CC(=O)O)NC(=O)[C@H](CC(=O)O)NC(=O)[C@@H](NC(=O)[C@H](CCCCN)NC(=O)[C@H](CO)NC(=O)[C@@H]1CCC(=O)N1)C(C)C)C(=O)N[C@@H](Cc1ccccc1)C(=O)N[C@@H](Cc1c[nH]c2ccccc12)C(N)=O [ArSK/CCK1] ([pGlu]SKVDD[sY]GHGLFW-NH2)	did not elicit luminescence responses	0.25	did not affect	only a tendency to an increased time to enclose	fewer	increased number of advances	four								4	7	36	64	10 min and 16 min and 8 min and 4 min and 2 min and 23 min and 19 min and 6 min and 3 min and 22 min and 48 min	215 min and 29 min and 4 min and 24 min and 10 min and 6 min and 144 min

— article PMC8428848, “Ancient role of sulfakinin/cholecystokinin-type signalling in inhibitory regulation of feeding processes revealed in an echinoderm” (eLife, 2021)
